# Measurements reported in paper PMC7316778 (Nature Communications, 2020).
# Columns and labels:
# Set-up in all cases: human FES cDNA encoding residues 448–822 or human FER cDNA encoding residues 448–820 was amplified by PCR; made in house; host or cells: E. coli BL21(DE3), co-expressing YopH phosphatase
# FES^S700C [1] = target: T1, FES^S700C (Homo sapiens, UniProt P07332, S700C); experiment: PamChip microarray peptide phosphorylation; type: biochemical; conditions: for Relative phosphorylation (% of highest signal): peptide substrate phosphorylated by FES - S700C; for Mean signal, time course: Figure 7f, S700C + WEL028, n 3
# T1 sequence (P07332 448-822 S700C): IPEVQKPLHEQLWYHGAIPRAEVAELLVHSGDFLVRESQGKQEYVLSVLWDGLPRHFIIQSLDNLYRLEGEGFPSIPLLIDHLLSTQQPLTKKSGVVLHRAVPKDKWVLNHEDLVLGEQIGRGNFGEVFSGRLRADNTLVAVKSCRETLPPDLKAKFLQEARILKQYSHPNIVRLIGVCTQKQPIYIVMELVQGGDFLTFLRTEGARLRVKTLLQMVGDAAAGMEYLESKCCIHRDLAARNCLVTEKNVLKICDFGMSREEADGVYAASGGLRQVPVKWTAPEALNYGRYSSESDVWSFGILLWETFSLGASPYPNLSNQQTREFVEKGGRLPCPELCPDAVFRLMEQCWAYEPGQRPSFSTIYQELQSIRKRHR
# FES^S700C [2] = target: T1, FES^S700C; experiment: MS identification of covalent inhibitor-peptide adduct; conditions: 1 μM, 30 min, rt
# Protocol: Purified FES^S700C (1.2 μg in 38 μL) was treated with WEL028 (2 μL of 20× concentrated stock in DMSO, 1 μM final concentration) or vehicle (as negative control) for 30 min at rt. […] Gel was stained using Coomassie Brilliant Blue R-250, bands were cut out of gel into small blocks and then destained in 500 μL of 50% MeOH in 100 mM NH4HCO3 pH 8.0 for 10 min at rt. Acetonitrile (500 μL) was added for gel blocks dehydration, after which gel blocks were digested with sequencing-grade trypsin (Promega) in 250 μL trypsin buffer (100 mM Tris pH 7.5, 100 mM NaCl, 1 mM CaCl2, 10% acetonitrile) overnight at 37 °C with vigorous shaking. […] Samples were subsequently desalted using StageTips with C18 material. […]
# Tryptic peptides were analyzed on a Surveyor nano-LC system (Thermo) hyphenated to a LTQ-Orbitrap mass spectrometer (Thermo) (n = 1)[69]. […] Samples of 10 µl were separated via a trap-elute setup at 250 nL/min flow and analyzed by data-dependent acquisition of one full scan/ top 3 method. For shotgun proteomics, fragmented precursor ions measured twice within 10 s were dynamically excluded for 60 s and ions with z < 2 or unassigned charges were not analyzed. Peptide ID was determined with the Mascot search engine. […]
# FES^S700C [3] = target: T1, FES^S700C; experiment: In vitro TR-FRET kinase assay; type: biochemical; conditions: TR-FRET assay, 5 µM ATP; n = 3; read-out: pIC50 FES^S700C (converted)
compound,measurement,setting,value
"VGFR1_1049_1061 (KNPDYVRKGDTRL; UniProt P17948 1049-1061, looked up, fragment)",Relative phosphorylation (% of highest signal),FES^S700C [1],-0.7 % of highest signal
"ZAP70_485_497 (ALGADDSYYTARS; UniProt P43403 485-497, looked up, fragment)",Relative phosphorylation (% of highest signal),FES^S700C [1],7.2 % of highest signal
"STA5A_687_699 (LAKAVDGYVKPQI; UniProt P42229 687-699, looked up, fragment)",Relative phosphorylation (% of highest signal),FES^S700C [1],-0.9 % of highest signal
"NPT2A_501_513 (AKALGKRTAKYRW; UniProt Q06495 501-513, looked up, fragment)",Relative phosphorylation (% of highest signal),FES^S700C [1],0.557 % of highest signal
"EPOR_361_373 (SEHAQDTYLVLDK; UniProt P19235 361-373, looked up, fragment)",Relative phosphorylation (% of highest signal),FES^S700C [1],5.7 % of highest signal
C#CCOc1ccc(Nc2ncc(Cl)c(Nc3ccccc3NC(=O)C=C)n2)c(OC)c1 [Compound 6],"Mean signal, time course",FES^S700C [1]; time 0 min,-48.0
same,"Mean signal, time course",FES^S700C [1]; time 5 min,-46.0
same,"Mean signal, time course",FES^S700C [1]; time 10 min,-41.0
same,"Mean signal, time course",FES^S700C [1]; time 15 min,-40.0
same,"Mean signal, time course",FES^S700C [1]; time 20 min,-38.0
same,"Mean signal, time course",FES^S700C [1]; time 25 min,-35.0
same,"Mean signal, time course",FES^S700C [1]; time 30 min,-33.0
same,"Mean signal, time course",FES^S700C [1]; time 35 min,-32.0
same,"Mean signal, time course",FES^S700C [1]; time 40 min,-32.0
same,"Mean signal, time course",FES^S700C [1]; time 45 min,-30.0
same,"Mean signal, time course",FES^S700C [1]; time 50 min,-26.0
same,"Mean signal, time course",FES^S700C [1]; time 55 min,-29.0
same,"Mean signal, time course",FES^S700C [1]; time 60 min,-29.0
same,ZAP70 peptide phosphorylation,FES^S700C [1]; WEL028 100 nM,abolished peptide phosphorylation
same,Covalent adduct by LC-MS/MS,FES^S700C [2],covalent addition of WEL028 to Cys700
same,IC50,FES^S700C [3],3.98 nM
"PERI_458_470 (QRSELDKSSAHSY; UniProt P41219 458-470, looked up, fragment)",Relative phosphorylation (% of highest signal),FES^S700C [1],-1.0 % of highest signal
"VGFR2_989_1001 (EEAPEDLYKDFLT; UniProt P35968 989-1001, looked up, fragment)",Relative phosphorylation (% of highest signal),FES^S700C [1],14.2 % of highest signal
